Consider 20 compounds from patent US7994187B2, “HIV inhibiting 3,4-dihydro-imidazo[4,5-B]pyridin-5-ones” (Tibotec Pharmaceuticals Ltd., priority 2006, dated 2011).

Bounds are passed on as bounds.

The CC50 is the concentration giving 50% cytotoxicity. A word on the EC50: it is the concentration at which the effect is half-maximal. A high value points to a need for much substance.

Data set [1] can be described thus: Cytotoxicity in mock-infected MT4 CMV-EGFP cells (GFP fluorescence). Particulars: human, 50% cytotoxic concentration as negative log. It counts as cell-based. From the text: Analogously, MT4 cells are engineered with GFP and the constitutional cytomegalovirus (CMV) promotor. This cell line is designated MT4 CMV-EGFP, and can be used for the in vitro evaluation of cytotoxicity of investigational compounds. In this cell line, GFP levels are comparably to those of infected MT4 LTR-EGFP cells. Cytotoxic investigational compounds reduce GFP levels of mock-infected MT4 CMV-EGFP cells.
(§1) Effective concentration values such as 50% effective concentration (EC50) can be determined and are usually expressed in μM. An EC50 value is defined as the concentration of test compound that reduces the fluorescence of HIV-infected cells by 50%. The 50% cytotoxic concentration (CC50 in μM) is defined as the concentration of test compound that reduces fluorescence of the mock-infected cells by 50%. The ratio of CC50 to EC50 is defined as the selectivity index (SI) and is an indication of the selectivity of the anti-HIV activity of the inhibitor. The ultimate monitoring of HIV-1 infection and cytotoxicity is done using a scanning microscope. Image analysis allows very sensitive detection of viral infection. Measurements are done before cell necrosis, which usually takes place about five days after infection, in particular measurements are performed three days after infection.

Data set [2] deals with wild-type HIV-IIIB strain. The experiment in a line: Anti-viral activity in cellular assay, MT4 LTR-EGFP cells (GFP fluorescence). It counts as cell-based, HIV-1. The settings on record: Human immunodeficiency virus 1, 72 h, pEC50 = -log10(EC50), measured three days after infection. The method, then: The compounds of the present invention were tested for anti-viral activity in a cellular assay, which was performed according to the following procedure.
The human T-cell line MT4 is engineered with Green Fluorescent Protein (GFP) and an HIV-specific promoter, HIV-1 long terminal repeat (LTR). This cell line is designated MT4 LTR-EGFP, and can be used for the in vitro evaluation of anti-HIV activity of investigational compounds. In HIV-1 infected cells, the Tat protein is produced which upregulates the LTR promotor and finally leads to stimulation of the GFP reporter production, allowing to measure ongoing HIV-infection fluorometrically.
as §1
The following Table 6 lists pEC50 values against wild-type HIV-IIIB strain as well as pEC50 values for a selected number of compounds of the invention. A pEC50 value corresponds to −log10(EC50). Listed are compounds having a pEC50 value of at least 5.00.

The compound `O=c1c2cc(Br)ccc2c2nc3ccccn3c2n1-c1ccc([N+](=O)[O-])cc1` [Compound 101, 3-bromo-6-(4-nitrophenyl)-pyrido[2′,1′:2,3]imidazo[4,5-c]isoquinolin-5(6H)-one] had a CC50 at 3 days in data set [1] greater than 100000 nM. This compound showed an EC50 in data set [2] of 2190 nM.
In data set [1], `O=c1c2sccc2c2nc3ccccn3c2n1-c1ccc([N+](=O)[O-])cc1` [Compound 103, 5-(4-nitrophenyl)-pyrido[2′,1′:2,3]imidazo[4,5-b]thieno[3,2-d]pyridin-4(5H)-one] gave a CC50 at 3 days greater than 32400 nM. Moreover, in data set [2], a half-maximal effect (EC50) was put at 1000 nM.
For `CN(C)CCOc1ccc2nc3c4ccccc4c(=O)n(-c4ccc([N+](=O)[O-])cc4)c3n2c1` [Compound 81], in data set [1], the 50% cytotoxic concentration (CC50) at 3 days is 13500 nM. Also, the half-maximal effective concentration (EC50) in data set [2] is 3160 nM.
For `O=CNc1ccc2nc3c4ccccc4c(=O)n(-c4ccc([N+](=O)[O-])cc4)c3n2c1` [Compound 70], in that order: greater than 32400 nM and 603 nM.
`Nc1ccc2nc3c4ccccc4c(=O)n(-c4ccc(Cl)nc4)c3n2c1` [Compound 53, 9-amino-6-(6-chloro-pyridin-3-yl)-pyrido[2′,1′:2,3]imidazo-[4,5-c]isoquinolin-5(6H)-one] showed a CC50 at 3 days in data set [1] of 4570 nM. For the same compound, in data set [2], the EC50 was 1660 nM.
For `CN(C)CCNc1ccc2nc3c4ccccc4c(=O)n(-c4ccc([N+](=O)[O-])cc4)c3n2n1` [Compound 122], in that order: 69.2 nM and 89.1 nM.
For `Cc1ccc(-n2c(=O)c3ccccc3c3nc4ccccn4c32)cc1[N+](=O)[O-]` [Compound 22], in data set [1], the cytotoxic concentration (CC50) at 3 days was greater than 32400 nM. The same compound showed an EC50 in data set [2] of 2880 nM.
The compound `O=c1c2ccccc2c2nc3ccccn3c2n1-c1ccc(Br)nc1` [Compound 21, 6-(6-bromo-pyridin-3-yl)-pyrido-[2′,1′:2,3]imidazo[4,5-c]isoquinolin-5(6H)-one] showed a 50% cytotoxic concentration (CC50) at 3 days in data set [1] greater than 32400 nM. The same compound had an EC50 in data set [2] of 4470 nM.
On to `CCc1ccc(-n2c(=O)c3ccccc3c3nc4ccccn4c32)cn1` [Compound 27, 6-(6-ethyl-pyridin-3-yl)-pyrido[2′,1′:2,3]imidazo[4,5-c]-isoquinolin-5(6H)-one], for which half-maximal cytotoxicity in data set [1] (CC50 at 3 days) was put at 26300 nM. The same compound showed an EC50 in data set [2] of 5750 nM.
On the same counts, the results for `CN(C)CCCOc1ccc2nc3c4ccccc4c(=O)n(-c4ccc([N+](=O)[O-])cc4)c3n2c1` [Compound 82] are 8910 nM and 1120 nM.
Compound `CNc1ccc2nc3c4ccccc4c(=O)n(-c4ccc([N+](=O)[O-])cc4)c3n2n1` [Compound 114] gave a CC50 at 3 days in data set [1] greater than 32400 nM. The compound also had an EC50 in data set [2] of 245 nM.
Take `O=c1c2ccccc2c2nc3ccc(NCCN4CCCC4)cn3c2n1-c1ccc([N+](=O)[O-])cc1` [Compound 67, 6-(4-nitrophenyl)-9-(2-pyrrolidin-1-yl-ethylamino)-pyrido[2′,1′:2,3]imidazo[4,5-c]isoquinolin-5(6H)-one]: in data set [1], it took 2630 nM to reach half-maximal cytotoxicity (CC50 at 3 days). In data set [2], this compound gave an EC50 of 339 nM.
`CN(C)CCCNc1ccc2nc3c4ccccc4c(=O)n(-c4ccc([N+](=O)[O-])cc4)c3n2n1` [Compound 120] had a CC50 at 3 days in data set [1] of 1320 nM. In data set [2], the EC50 was 631 nM.
As to `O=C(Nc1ccc2nc3c4ccccc4c(=O)n(-c4ccc([N+](=O)[O-])cc4)c3n2c1)C(F)(F)F` [Compound 90], the CC50 at 3 days in data set [1] is greater than 32400 nM. This compound also gave a concentration for a half-maximal effect (EC50) in data set [2] of 398 nM.
The compound `O=c1c2ccccc2c2nc3ccc(OP(=O)(O)O)cn3c2n1-c1ccc(Cl)nc1` [Compound 77] showed a 50% cytotoxic concentration (CC50) at 3 days in data set [1] of 25700 nM. For the same compound, in data set [2], the EC50 was 1120 nM.
The compound `O=c1c2ccccc2c2nc3ccc(OCCN4CCCC4)cn3c2n1-c1ccc([N+](=O)[O-])cc1` [Compound 78] gave a half-maximal cytotoxic concentration (CC50) at 3 days in data set [1] greater than 32400 nM. The same compound gave an EC50 in data set [2] of 3020 nM.
On the same counts, the results for `CCNCCNc1ccc2nc3c4ccccc4c(=O)n(-c4ccc([N+](=O)[O-])cc4)c3n2n1` [Compound 128] are 851 nM and 30.9 nM.
In data set [1], `Cc1cccc2c(=O)n(-c3ccc([N+](=O)[O-])cc3)c3c(nc4ccc(O)cn43)c12` [Compound 110, 9-hydroxy-1-methyl-6-(4-nitrophenyl)-pyrido[2′,1′:2,3]imidazo[4,5-c]isoquinolin-5(6H)-one] had a cytotoxic concentration (CC50) at 3 days of 5370 nM. The EC50 in data set [2] is 53.7 nM.
As to `O=c1c2ccccc2c2nc3ccc(O)cn3c2n1-c1ccc([N+](=O)[O-])cc1` [Compound 10, 9-hydroxy-6-(4-nitrophenyl)-pyrido[2′,1′:2,3]imidazo[4,5-c]isoquinolin-5(6H)-one], the 50% cytotoxic concentration (CC50) at 3 days in data set [1] was greater than 32400 nM. In data set [2], this compound showed a concentration giving a half-maximal response (EC50) of 155 nM.
`O=c1c2ccccc2c2nc3ccc(NCCO)nn3c2n1-c1ccc([N+](=O)[O-])cc1` [Compound 121, 9-[(2-hydroxyethyl)amino]-6-(4-nitrophenyl)-pyridazo[3′,2′:2,3]imidazo[4,5-c]isoquinolin-5(6H)-one] gave a CC50 at 3 days in data set [1] of 14800 nM. Further, the EC50 in data set [2] is 275 nM.
